Drawing on ChEMBL document CHEMBL1140525, “Conformationally restricted macrocyclic analogues of combretastatins” (Bioorg Med Chem Lett, 2007), this text covers IC50 and inhibition for 26 compounds.

The target of one assay is Tubulin. In words: Inhibition of tubulin polymerization. The format is protein-complex assay, Homo sapiens.
`COc1ccc([C@H](O)[C@@H](O)c2cc(OC)c(OC)c(OC)c2)cc1O` displayed a half-maximal inhibitory concentration (IC50) of 22 µM. That is a double-digit micromolar value.
For `COc1ccc([C@@H](O)[C@H](O)c2cc(OC)c(OC)c(OC)c2)cc1O`, the half-inhibitory concentration (IC50) was greater than 40 µM.
On the same count and under the same terms, the result for `COc1ccc([C@@H]2OCO[C@H]2c2cc(OC)c(OC)c(OC)c2)cc1O` reads 4 µM.
With `COc1ccc(C[C@@H](O)c2cc(OC)c(OC)c(OC)c2)cc1O` [COMBRETASTATIN], inhibition was half-maximal at 5 µM (IC50).
Compound `COc1ccc([C@H]2OCO[C@@H]2c2cc(OC)c(OC)c(OC)c2)cc1O` had an IC50 greater than 50 µM.
Same read-out and setting: under `COc1ccc(/C=C\c2cc(OC)c(OC)c(OC)c2)cc1` stands 2.2 µM.

For a further assay, the target named is T1, Tubulin (Homo sapiens) (UniProt P68371+Q9H4B7+P0DPH7+P68366+Q13509+Q71U36+P04350+Q3ZCM7+P07437+P68363+Q9BQE3+Q6PEY2+Q13885+Q9BVA1+Q9BUF5). Briefly: Inhibition of tubulin polymerization at 30 uM. In kind it is protein-complex assay.
On to `COc1cc2cc(OC)c1OCCOCCOc1ccc(cc1)/C=C\2`, for which the inhibition came to 0%.

The next assay has as its target T1, Tubulin (Homo sapiens). Briefly: Inhibition of tubulin polymerization at 40 uM. In kind it is protein-complex assay.
Compound `COc1cc2cc(OC)c1OCCCCCCOc1ccc(cc1OC(C)=O)[C@H](OC(C)=O)[C@H]2OC(C)=O` (relative stereo) registered an inhibition of 2%.
The same measure, in the same setting: the result for `COc1cc2cc(OC)c1OCCOCCOc1ccc(cc1)[C@H](OC(C)=O)[C@H]2OC(C)=O` (relative stereo) reads 0%; that for `COc1cc2cc(OC)c1OCCCCCCOc1ccc(cc1)[C@H](OC(C)=O)[C@H]2OC(C)=O`, 0%; that for `COc1cc2cc(OC)c1OCCCCCCOc1ccc(cc1)[C@H](O)[C@H]2O` (relative stereo), 4%.
`COc1cc2cc(OC)c1OCCCCCCOc1ccc(cc1O)/C=C\2` had an inhibition of 0%.
On the same count and under the same terms, under `COc1cc2cc(OC)c1OCCOCCOc1ccc(cc1OC(C)=O)[C@H](OC(C)=O)[C@H]2OC(C)=O` (relative stereo) stands 0%; under `COc1cc2cc(OC)c1OCCOCCOc1ccc(cc1)[C@@H]1OC(C)(C)O[C@H]21`, 0%; under `COc1cc2cc(OC)c1OCCOCCOc1ccc(cc1)[C@@H](O)[C@H]2O` (relative stereo), 0%.
On the same count and under the same terms, the result for `COc1cc2cc(OC)c1OCCOCCOc1ccc(cc1O)[C@H](O)[C@H]2O` (relative stereo) reads 1%.
For `COc1cc2cc(OC)c1OCCCCCCOc1ccc(cc1)/C=C\2`, the inhibition was 60%.
Still for that read-out and setting: under `COc1cc2cc(OC)c1OCCOCCOc1ccc(cc1)[C@H](O)[C@H]2O` stands 0%; under `COc1cc2cc(OC)c1OCCOCCOc1ccc(cc1)[C@@H](OC(C)=O)[C@H]2OC(C)=O` (relative stereo), 0%.
On the same count and under the same terms, the result for `COc1cc2cc(OC)c1OCCOCCOc1ccc(cc1O)[C@@H](O)[C@H]2O` (relative stereo) reads 11%.
For `COc1cc2cc(OC)c1OCCOCCOc1ccc(cc1OC(C)=O)[C@@H](OC(C)=O)[C@H]2OC(C)=O` (relative stereo), the inhibition is 0%.

Another assay has as its target T1, Tubulin (Homo sapiens). In words: Inhibition of tubulin polymerization at 10 uM. In kind it is protein-complex assay.
For the compound `COc1cc2cc(OC)c1OCCCCCCn1ccc3cc(ccc31)/C=C\2`, the inhibition stood at 19%.

The target of a further assay is T1, Tubulin (Homo sapiens). Briefly: Inhibition of tubulin polymerization at 20 uM. In kind it is protein-complex assay.
In turn, `COc1cc2cc(OC)c1OCCCCCCn1ccc3cc(ccc31)[C@@H](OC(C)=O)[C@H]2OC(C)=O` displayed an inhibition of 9%.
Same read-out and setting: under `COc1cc2cc(OC)c1OCCCCCCn1ccc3cc(ccc31)[C@@H](O)[C@H]2O` stands 11%; under `COc1cc2cc(OC)c1OCCCCCCn1ccc3cc(ccc31)[C@H](O)[C@H]2O`, 9%.
`COc1cc2cc(OC)c1OCCCCCCn1ccc3cc(ccc31)[C@H](OC(C)=O)[C@H]2OC(C)=O` gave an inhibition of 8%.
